Laboratory results: patent US11174251B2, “Compositions and methods for inhibition of the JAK pathway” (Rigel Pharmaceuticals, Inc., priority 2010, dated 2021)
Where a name gives a salt, the structure may show the parent alone.

Molecular target: T1, JAK3 (Homo sapiens, UniProt P52333)
T1 construct: The Ramos B-cell line was acquired from ATCC (ATCC Catalog No. CRL-1596); host or cells: Ramos B-cell line (human)
T1 sequence (P52333 1-1124): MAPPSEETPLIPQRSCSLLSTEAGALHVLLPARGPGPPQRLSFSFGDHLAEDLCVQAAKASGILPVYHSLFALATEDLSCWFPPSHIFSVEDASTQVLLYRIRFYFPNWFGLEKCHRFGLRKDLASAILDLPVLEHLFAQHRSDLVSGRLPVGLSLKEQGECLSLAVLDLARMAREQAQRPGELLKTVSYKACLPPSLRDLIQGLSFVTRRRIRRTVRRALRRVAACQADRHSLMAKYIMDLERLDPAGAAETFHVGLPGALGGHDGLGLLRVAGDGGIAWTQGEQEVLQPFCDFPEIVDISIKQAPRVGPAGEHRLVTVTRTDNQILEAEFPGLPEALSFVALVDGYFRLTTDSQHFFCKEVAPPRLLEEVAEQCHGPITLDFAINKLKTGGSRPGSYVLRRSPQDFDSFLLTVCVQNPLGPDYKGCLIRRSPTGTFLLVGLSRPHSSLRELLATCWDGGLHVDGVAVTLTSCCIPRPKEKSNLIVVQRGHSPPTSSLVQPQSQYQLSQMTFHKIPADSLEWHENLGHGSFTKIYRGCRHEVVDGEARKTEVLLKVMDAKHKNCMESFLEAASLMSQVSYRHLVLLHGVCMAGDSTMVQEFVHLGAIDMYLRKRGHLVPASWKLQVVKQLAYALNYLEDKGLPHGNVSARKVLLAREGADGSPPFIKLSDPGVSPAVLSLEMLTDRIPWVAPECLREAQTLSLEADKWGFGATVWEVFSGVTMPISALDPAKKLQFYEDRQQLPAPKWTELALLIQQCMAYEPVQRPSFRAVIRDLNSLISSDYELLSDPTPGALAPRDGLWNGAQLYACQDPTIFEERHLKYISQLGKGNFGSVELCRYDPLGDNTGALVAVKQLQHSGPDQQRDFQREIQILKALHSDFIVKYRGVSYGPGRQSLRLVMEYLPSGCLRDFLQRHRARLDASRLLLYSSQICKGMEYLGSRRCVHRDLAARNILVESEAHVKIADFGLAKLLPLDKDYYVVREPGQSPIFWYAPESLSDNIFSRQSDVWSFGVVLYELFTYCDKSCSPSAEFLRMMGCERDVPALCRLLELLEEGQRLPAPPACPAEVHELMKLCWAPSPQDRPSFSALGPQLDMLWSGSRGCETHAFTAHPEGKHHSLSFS
Assay: Assay for CD23 expression on Ramos B-cells stimulated by IL-4 (Table IV: ability to inhibit JAK3 activity)
Format: cell-based
Settings: tested under conditions described in Example 3 (so in the source)
Method in brief: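 IL-4-induced CD23 surface expression on human Ramos B cells, detected by flow cytometry after 20–24 h stimulation (IL-4 final 50 units/mL). Compound or DMSO added 1 h beforehand at 37 °C; cells kept in RPMI with 5% serum.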

Compound	IC50
Cc1ccc(Nc2ncc(C)c(Nc3ccc4oc(=O)[nH]c4c3)n2)nc1C [II-21, N2-(5,6-dimethylpyridin-2-yl)-5-methyl-N4-(2-oxo-2,3-dihydro-1,3-benzoxazol-5-yl)-2,4-pyrimidinediamine]	500 to 5000 nM
Cc1cnc(Nc2cc(C)c3c(c2)C(=O)OC3)nc1Nc1ccc2oc(=O)[nH]c2c1 [II-13, 5-methyl-N4-(2-oxo-2,3-dihydro-1,3-benzoxazol-5-yl)-N2-(1-oxo-1,3-dihydro-4-methylisobenzofuran-6-yl)-2,4-pyrimidinediamine]	< 500 nM
Cc1cc(Nc2ncc([N+](=O)[O-])c(Nc3ccc4oc(=O)[nH]c4c3)n2)cc(C)c1C [Compound I-42, 5-(5-nitro-2-(3,4,5-trimethylphenylamino)pyrimidin-4-ylamino)benzo[d]oxazol-2(3H)-one trifluoroacetate salt]	> 10000 nM
COC(=O)c1cnc(Nc2cc(OC)cc(C(F)(F)F)c2)nc1Nc1ccc2oc(=O)[nH]c2c1 [Compound I-55, 2-(3-Methoxy-5-trifluoromethyl-phenylamino)-4-(2-oxo-2,3-dihydro-benzooxazol-5-ylamino)-pyrimidine-5-carboxylic acid methyl ester trifluoroacetate salt]	> 10000 nM
COc1cc(Nc2ncc(C)c(Nc3ccc4oc(=O)[nH]c4c3)n2)cc(C)c1Cl [Compound I-124, 5-(2-(4-chloro-3-methoxy-5-methylphenylamino)-5-methylpyrimidin-4-ylamino)benzo[d]oxazol-2(3H)-one trifluoroacetate salt]	< 500 nM
COc1cc(Nc2ncc([N+](=O)[O-])c(Nc3ccc4oc(=O)[nH]c4c3)n2)ccc1C [Compound I-44, 5-(2-(3-methoxy-4-methylphenylamino)-5-nitropyrimidin-4-ylamino)benzo[d]oxazol-2(3H)-one trifluoroacetate salt]	> 10000 nM
Cc1cnc(Nc2cc(C)c(Br)c(C)c2)nc1Nc1ccc2oc(=O)[nH]c2c1 [Compound I-149, N2-(4-bromo-3,5-dimethyl)phenyl-5-methyl-N4-(2-oxo-2,3-dihydro-1,3-benzoxazol-5-yl)-2,4-pyrimidinediamine]	< 500 nM

Further lines, results first:

IC50	Compound
< 500 nM	C#Cc1cnc(Nc2cc(C)c(C)c(C)c2)nc1Nc1ccc2oc(=O)[nH]c2c1 [Compound I-18, 5-[5-Ethynyl-2-(3,4,5-trimethyl-phenylamino)-pyrimidin-4-ylamino]-3H-benzooxazol-2-one trifluoroacetate salt]
500 to 5000 nM	Cc1cnc(Nc2cc(C)c(C)c(C(=O)O)c2)nc1Nc1ccc2oc(=O)[nH]c2c1 [Compound I-145, N2-(3-carboxy-4,5-dimethyl)phenyl-5-methyl-N4-(2-oxo-2,3-dihydro-1,3-benzoxazol-5-yl)-2,4-pyrimidinediamine]
< 500 nM	COc1c(Br)ccc(Nc2ncc(C)c(Nc3ccc4oc(=O)[nH]c4c3)n2)c1F [Compound I-27, 5-[2-(4-Bromo-2-fluoro-3-methoxy-phenylamino)-5-methyl-pyrimidin-4-ylamino]-3H-benzooxazol-2-one]
< 500 nM	CCOC(=O)c1c(C)cc(Nc2ncc(C)c(Nc3ccc4oc(=O)[nH]c4c3)n2)cc1OC [Compound I-128, ethyl 4-(4-(2,3-dihydro-2-oxobenzo[d]oxazol-5-ylamino)-5-methylpyrimidin-2-ylamino)-2-methoxy-6-methylbenzoate]
< 500 nM	CCNc1cc(Nc2ncc(C)c(Nc3ccc4oc(=O)[nH]c4c3)n2)cc(C)c1C [Compound I-85, 5-(2-(3-(ethylamino)-4,5-dimethylphenylamino)-5-methylpyrimidin-4-ylamino)benzo[d]oxazol-2(3H)-one formate salt]
< 500 nM	COC(=O)c1cc(Nc2ncc(C)c(Nc3ccc4oc(=O)[nH]c4c3)n2)cc(C)c1F [Compound I-153, N2-(4-fluoro-3-methoxycarbonyl-5-methyl)phenyl-5-methyl-N4-(2-oxo-2,3-dihydro-1,3-benzoxazol-5-yl)-2,4-pyrimidinediamine]
< 500 nM	COc1cc(Nc2ncc(C)c(Nc3ccc4oc(=O)n(C)c4c3)n2)cc(C)c1F [Compound I-127, 5-(2-(4-fluoro-3-methoxy-5-methylphenylamino)-5-methylpyrimidin-4-ylamino)-3-methylbenzo[d]oxazol-2(3H)-one trifluoroacetate salt]
< 500 nM	COc1cc(Nc2ncc(F)c(Nc3ccc4oc(=O)[nH]c4c3)n2)cc(C)c1C [Compound I-195, 5-(2-(3-methoxy-4,5-dimethylphenylamino)-5-fluoropyrimidin-4-ylamino)benzo[d]oxazol-2(3H)-one trifluoroacetate salt]
< 500 nM	Cc1cnc(Nc2cc(C)c(F)c(C)c2)nc1Nc1ccc2oc(=O)[nH]c2c1 [Compound I-146, N2-(3,5-dimethyl-4-fluoro)phenyl-5-methyl-N4-(2-oxo-2,3-dihydro-1,3-benzoxazol-5-yl)-2,4-pyrimidinediamine benzenesulfonic acid salt]
< 500 nM	O=c1[nH]c2cc(Nc3nc(Nc4ccc5c(c4)CCC(N4CCCC4)CC5)ncc3F)ccc2o1 (centres unmarked) [II-2, 5-(5-fluoro-2-(7-(pyrrolidin-1-yl)-6,7,8,9-tetrahydro-5H-benzo[7]annulen-2-ylamino)pyrimidin-4-ylamino)benzo[d]oxazol-2(3H)-one diformate salt]
